In PMC11961695 (Annals of oncology : official journal of the European …, 2022):
“Also recorded” adds a separate entry of the source. Read-outs that look alike come from different tables or passages of the source.

Experiments:
[1] = tested on: locally advanced or metastatic cholangiocarcinoma; conditions: cited from earlier work
[2] = tested on: refractory advanced malignancies with and without FGF/FGFR alterations; experiment: FIGHT-101 tumor response per investigator
serum phosphate = experiment: Serum phosphate pharmacodynamics and Emax exposure-response model; conditions: in vivo
[3] = FIGHT-101 safety and tolerability
[4] = FIGHT-101 clinical pharmacokinetics
[5] = FIGHT-202, FGFR2 fusions or rearrangements
[6] = cholangiocarcinoma with FGFR2 fusions or rearrangements (13 patients)
[7] = all treated patients, any grade

## CCN1C(=O)N(c2c(F)c(OC)cc(OC)c2F)Cc2cnc3[nH]c(CN4CCOCC4)cc3c21 [pemigatinib]
[1]; [5]
  Disease control rate: 82%
  Estimated median OS: 17.5 months
  ORR: 35.5%
[1]; FIGHT-202, no FGF/FGFR alterations
  Disease control rate: 22%
[1]; FIGHT-202, other FGF/FGFR alterations
  Disease control rate: 40%
[2]; FGF amplification
  Stable disease: 20%
[2]; FGFR amplification
  Stable disease: 26.9%
[2]; FGFR fusions or rearrangements
  Stable disease: 50%
[2]; FGFR fusions or rearrangements (n = 20)
  Median PFS: 5.7 months
[2]; FGFR mutations
  Stable disease: 23.1%
[2]; FGFR mutations (n = 13)
  Median PFS: 5.0 months
[2]; adenoid cystic carcinoma of the head and neck, 9 mg QD (CD)
  Time to disease progression, individual patient: 20.5 months
[2]; adenoid cystic carcinoma of the head and neck, 9 mg QD (CD), no FGF/FGFR alterations
  Time on treatment to PR, individual patient: 6.0 months
[2]; all patients (N = 128)
  Disease progression: 38.3%
  Median PFS: 2.8 months
  Partial response: 9.4%
  Partial responses achieved, number: 12
  Stable disease: 31.3%
[2]; all responders (n = 12)
  Median duration of response: 7.3 months
[2]; [6]
  Partial response: 23.1%
  Stable disease: 61.5%
[2]; cholangiocarcinoma, FGFR2-CCDC6 fusion
  Duration of response, individual patient: 11.3 months
[2]; non-small-cell lung cancer, 9 mg QD (CD), FGF/FGFR status unknown
  Time on treatment to PR, individual patient: 6.2 months
[2]; non-small-cell lung cancer, 9 mg QD (CD), ongoing at database lock
  Duration of response, individual patient: 29.9 months
[2]; pancreatic cancer, FGFR2-USP33 fusion
  Duration of response, individual patient: 10.7 months
[2]; patients with FGF/FGFR alterations
  Stable disease: 30.4%
[2]; patients with FGFR fusions or rearrangements
  ORR: 25.0%
[2]; patients with FGFR mutations
  ORR: 23.1%
[2]; patients with SD and FGF/FGFR alterations (n = 24)
  Best median percentage change in target lesion size: −8.0%
[2]; positive for FGF/FGFR alterations (n = 79)
  Median PFS: 3.0 months
Serum phosphate
  Pharmacologically active doses: ≥ 4 mg
[3]; 1–20 mg QD, ID or CD, cycle 1
  Dose-limiting toxicities: No dose-limiting toxicities were reported; also recorded: No DLTs were reported in any dose cohort; also recorded: No DLTs were encountered
[3]; CD
  Clinically notable TEAEs: 86.2%
  Dose interruptions due to TEAEs: 74.1%
  Dose reductions due to TEAEs: 17.2%
  Fatigue, grade ≥3 TEAE: 15.5%
  Grade ≥3 TEAEs: 75.9%
  Grade ≥3 hyponatremia: 10.3%
  Grade ≥3 stomatitis: 17.2%
  Hyperphosphatemia, any-cause TEAE: 82.8%
  Hypophosphatemia events: 12.1%
  Treatment discontinuations due to TEAEs: 12.1%
[3]; ID
  Clinically notable TEAEs: 77.1%
  Dose interruptions due to TEAEs: 32.9%
  Dose reductions due to TEAEs: 5.7%
  Fatigue, grade ≥3 TEAE: 5.7%
  Grade ≥3 TEAEs: 50.0%
  Grade ≥3 hyponatremia: 7.1%
  Grade ≥3 stomatitis: 1.4%
  Hyperphosphatemia, any-cause TEAE: 68.6%
  Hypophosphatemia events: 18.6%
  Treatment discontinuations due to TEAEs: 8.6%
[3]; all patients
  TEAEs of dry eye: 23.4%
  TEAEs of eyelash changes: 13.3%
  TEAEs of serous retinal detachment: no TEAEs of serous retinal detachment; also recorded: no serous retinal detachment events were reported
  TEAEs of vision blurred: 16.4%
  TEAEs of vitreous detachment: 1.6%
[3]; all treated patients
  Clinically notable TEAEs: 81.3%
  Dose interruption due to hypophosphatemia: 1.6%
  Dose interruption due to nail toxicities: 7.8%
  Dose interruption for hyperphosphatemia: 9.4%
  Dose reduction due to nail toxicities: 0.8%
  Dose reduction for hyperphosphatemia: 1.6%
  Dose reductions due to hypophosphatemia: none required dose reductions
  Fatigue, grade ≥3 TEAE: 10.2%
  Hyperphosphatemia requiring dose interruption: 12 n
  Hyperphosphatemia, grade ≥3: 2.3%
  Nail discoloration: 13.3%
  Onycholysis: 14.8%
  Paronychia: 10.2%
  Patients with TEAE-related treatment discontinuation: 10.2%
  Patients with a TEAE: 99.2%
  Patients with dose interruption due to TEAEs: 51.6%
  Patients with dose reduction due to TEAEs: 10.9%
  Treatment-related TEAE: 90.6%
[3]; all treated patients (N = 128), any grade
  Hyperphosphatemia, any-cause TEAE: 75%
[3]; all treated patients (all CD)
  Stomatitis requiring dose reduction: 4 n
[3]; all treated patients (both ID)
  Pneumonia requiring discontinuation: 2 n
  Small intestinal obstruction requiring discontinuation: 2 n
[3]; [7]
  Hyperphosphatemia, treatment-related TEAE: 73.4%
  Hypophosphatemia events: 15.6%
  Nail toxicities: 32.0%
[3]; all treated patients, grade ≥3
  Hyperphosphatemia, treatment-related TEAE: 1.6%
  Hypophosphatemia events: 5.5%
  Nail toxicities: 3.1%
[3]; grade 3 paronychia (20 mg CD), grade 2 trichiasis (13.5 mg CD)
  Treatment discontinuations resulting from clinically notable TEAEs: two
[3]; in vivo
  Permanent treatment discontinuation due to hyperphosphatemia: None of the hyperphosphatemia events resulted in permanent treatment discontinuation
  Relation of deaths due to TEAEs to treatment: None of these deaths were considered treatment-related
[3]; monotherapy, 1–20 mg QD
  Maximum tolerated dose: not reached
[4]; 13.5 mg QD
  Increase in average per-cycle exposure, CD versus ID regimen: 50%
[4]; 1–20 mg QD
  Dose proportionality of steady-state Cmax and AUC0–24: dose-proportional increases
[4]; human, in vivo
  Effect of a high-fat and high-calorie meal on pharmacokinetics: modest effects on pemigatinib pharmacokinetics that were not considered clinically meaningful
[4]; human, in vivo, Steady-state geometric mean terminal-phase disposition half-life, doses ≥6 mg QD
  half-life: 12.1 to 15.4 h
